Reference: article PMC5428509, “Irreversible inhibition of BTK kinase by a novel highly selective inhibitor CHMFL-BTK-11 suppresses inflammatory response in rheumatoid arthritis model” (Scientific Reports, 2017)

Assays:
Experiment in all cases: biochemical
Set-up in all cases: KinomeScan competition binding panel (DiscoveRx), percent of control at 1 uM
Conditions in all cases: read-out: Percent Control
ERK4 = target: T1, ERK4 (Homo sapiens, UniProt P31152)
T1 construct: gene MAPK4
Procedure, shortened: (§1)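 KinomeScan technology used to profile binding across a panel of 456 kinases and mutants.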

[1] = target: T2, JAK2(JH1domain-catalytic) (Homo sapiens, UniProt O60674)
T2 construct: JH1domain-catalytic
Procedure, shortened: as §1

NEK11 = NEK11 (Homo sapiens, UniProt Q8NG66)
Procedure, shortened: as §1

EGFR(G719C) = EGFR(G719C) (Homo sapiens, UniProt P00533, G719C)
Procedure, shortened: as §1

PCTK1 = target: T3, PCTK1 (Homo sapiens, UniProt Q00536)
T3 construct: gene CDK16
T3 sequence (Q00536 whole entry): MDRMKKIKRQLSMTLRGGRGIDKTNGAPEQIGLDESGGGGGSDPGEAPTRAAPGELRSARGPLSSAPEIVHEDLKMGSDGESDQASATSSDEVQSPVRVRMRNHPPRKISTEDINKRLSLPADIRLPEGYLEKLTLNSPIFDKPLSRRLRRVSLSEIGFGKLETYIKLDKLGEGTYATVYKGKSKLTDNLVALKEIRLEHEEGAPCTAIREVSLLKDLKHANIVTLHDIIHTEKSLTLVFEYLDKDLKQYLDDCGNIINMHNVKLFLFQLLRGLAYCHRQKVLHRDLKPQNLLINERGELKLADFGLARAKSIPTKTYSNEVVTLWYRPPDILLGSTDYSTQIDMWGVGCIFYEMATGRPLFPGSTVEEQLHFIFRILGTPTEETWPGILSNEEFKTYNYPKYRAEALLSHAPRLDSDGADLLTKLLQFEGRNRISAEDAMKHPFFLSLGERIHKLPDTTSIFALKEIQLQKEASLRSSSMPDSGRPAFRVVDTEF
Procedure, shortened: as §1

PHKG2 = PHKG2 (Homo sapiens, UniProt P15735)
Procedure, shortened: as §1

KIT(V559D,T670I) = KIT(V559D,T670I) (Homo sapiens, UniProt P10721, T670I/V559D)
Procedure, shortened: as §1

CDC2L1 = target: T4, CDC2L1 (Homo sapiens, UniProt P21127)
T4 construct: gene CDK11B
Procedure, shortened: as §1

p38-delta = target: T5, p38-delta (Homo sapiens, UniProt O15264)
T5 construct: gene MAPK13
Procedure, shortened: as §1

GRK4 = GRK4 (Homo sapiens, UniProt P32298)
Procedure, shortened: as §1

PIK3C2B = PIK3C2B (Homo sapiens, UniProt O00750)
Procedure, shortened: as §1

PIK3CA(E542K) = PIK3CA(E542K) (Homo sapiens, UniProt P42336, E542K)
PIK3CA(E542K), sequence (P42336 whole entry E542K): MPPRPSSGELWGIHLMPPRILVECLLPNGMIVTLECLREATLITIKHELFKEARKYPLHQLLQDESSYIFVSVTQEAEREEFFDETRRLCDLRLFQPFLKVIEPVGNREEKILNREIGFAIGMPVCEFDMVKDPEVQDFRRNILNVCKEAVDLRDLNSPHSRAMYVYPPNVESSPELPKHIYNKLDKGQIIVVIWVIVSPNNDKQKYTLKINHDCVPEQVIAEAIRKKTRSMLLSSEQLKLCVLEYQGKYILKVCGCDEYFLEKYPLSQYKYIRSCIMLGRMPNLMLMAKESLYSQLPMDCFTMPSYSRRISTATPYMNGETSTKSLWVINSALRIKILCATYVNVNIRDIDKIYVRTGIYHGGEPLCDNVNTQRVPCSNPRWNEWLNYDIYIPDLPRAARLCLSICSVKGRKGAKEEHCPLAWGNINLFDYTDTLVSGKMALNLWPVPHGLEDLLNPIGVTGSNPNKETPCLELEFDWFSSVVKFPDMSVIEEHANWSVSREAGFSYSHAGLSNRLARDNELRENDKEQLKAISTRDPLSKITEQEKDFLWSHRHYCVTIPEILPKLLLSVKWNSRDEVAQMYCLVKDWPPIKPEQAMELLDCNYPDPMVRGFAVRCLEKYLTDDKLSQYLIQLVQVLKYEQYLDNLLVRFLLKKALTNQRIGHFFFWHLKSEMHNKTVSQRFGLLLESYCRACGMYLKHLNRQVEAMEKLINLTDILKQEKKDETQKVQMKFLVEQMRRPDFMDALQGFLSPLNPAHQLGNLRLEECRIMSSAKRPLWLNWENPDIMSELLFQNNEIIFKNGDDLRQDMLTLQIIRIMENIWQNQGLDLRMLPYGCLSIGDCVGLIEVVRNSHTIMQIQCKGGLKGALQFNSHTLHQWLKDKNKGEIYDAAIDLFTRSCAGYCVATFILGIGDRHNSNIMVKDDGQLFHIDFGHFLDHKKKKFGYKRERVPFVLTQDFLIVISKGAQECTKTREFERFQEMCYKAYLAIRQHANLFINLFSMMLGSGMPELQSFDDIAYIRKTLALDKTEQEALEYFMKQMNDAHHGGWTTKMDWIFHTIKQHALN
Procedure, shortened: as §1

PIM3 = PIM3 (Homo sapiens, UniProt Q86V86)
Procedure, shortened: as §1

RET(V804M) = RET(V804M) (Homo sapiens, UniProt P07949, V804M)
Procedure, shortened: as §1

CSK = CSK (Homo sapiens, UniProt P41240)
CSK, sequence (P41240 whole entry): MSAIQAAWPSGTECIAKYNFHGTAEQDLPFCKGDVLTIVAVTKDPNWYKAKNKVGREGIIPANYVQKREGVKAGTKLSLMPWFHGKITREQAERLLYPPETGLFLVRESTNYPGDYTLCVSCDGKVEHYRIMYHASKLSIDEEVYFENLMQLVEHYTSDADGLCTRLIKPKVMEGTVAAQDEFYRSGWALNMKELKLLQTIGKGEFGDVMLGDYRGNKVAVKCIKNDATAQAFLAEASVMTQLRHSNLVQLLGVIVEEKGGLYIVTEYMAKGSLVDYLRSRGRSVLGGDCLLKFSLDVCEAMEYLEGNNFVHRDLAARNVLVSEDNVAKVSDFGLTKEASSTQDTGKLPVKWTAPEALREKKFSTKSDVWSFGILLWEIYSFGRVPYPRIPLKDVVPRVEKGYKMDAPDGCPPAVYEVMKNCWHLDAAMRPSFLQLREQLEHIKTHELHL
Procedure, shortened: as §1

TAOK2 = TAOK2 (Homo sapiens, UniProt Q9UL54)
Procedure, shortened: as §1

PIK3CA(I800L) = PIK3CA(I800L) (Homo sapiens, UniProt P42336, I800L)
PIK3CA(I800L), sequence (P42336 whole entry I800L): as the sequence (P42336 whole entry E542K) above, with K542E, I800L counted along it
Procedure, shortened: as §1

SRC = SRC (Homo sapiens, UniProt P12931)
Procedure, shortened: as §1

LYN = LYN (Homo sapiens, UniProt P07948)
Procedure, shortened: as §1

STK16 = STK16 (Homo sapiens, UniProt O75716)
Procedure, shortened: as §1

ERK1 = target: T6, ERK1 (Homo sapiens, UniProt P27361)
T6 construct: gene MAPK3
T6 sequence (P27361 whole entry): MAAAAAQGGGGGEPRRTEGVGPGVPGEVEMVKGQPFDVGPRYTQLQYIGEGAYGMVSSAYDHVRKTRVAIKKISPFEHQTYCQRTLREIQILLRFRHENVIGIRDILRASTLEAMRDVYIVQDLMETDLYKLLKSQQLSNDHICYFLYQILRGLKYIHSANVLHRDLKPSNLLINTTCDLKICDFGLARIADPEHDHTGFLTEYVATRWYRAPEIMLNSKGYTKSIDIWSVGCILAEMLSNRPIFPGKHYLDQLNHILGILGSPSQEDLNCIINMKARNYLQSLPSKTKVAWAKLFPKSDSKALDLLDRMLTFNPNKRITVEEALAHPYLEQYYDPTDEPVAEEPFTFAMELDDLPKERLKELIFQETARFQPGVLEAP
Procedure, shortened: as §1

PRKCD = PRKCD (Homo sapiens, UniProt Q05655)
Procedure, shortened: as §1

BTK = BTK (Homo sapiens, UniProt Q06187)
Procedure, shortened: as §1

MYO3A = MYO3A (Homo sapiens, UniProt Q8NEV4)
MYO3A, sequence (Q8NEV4 whole entry): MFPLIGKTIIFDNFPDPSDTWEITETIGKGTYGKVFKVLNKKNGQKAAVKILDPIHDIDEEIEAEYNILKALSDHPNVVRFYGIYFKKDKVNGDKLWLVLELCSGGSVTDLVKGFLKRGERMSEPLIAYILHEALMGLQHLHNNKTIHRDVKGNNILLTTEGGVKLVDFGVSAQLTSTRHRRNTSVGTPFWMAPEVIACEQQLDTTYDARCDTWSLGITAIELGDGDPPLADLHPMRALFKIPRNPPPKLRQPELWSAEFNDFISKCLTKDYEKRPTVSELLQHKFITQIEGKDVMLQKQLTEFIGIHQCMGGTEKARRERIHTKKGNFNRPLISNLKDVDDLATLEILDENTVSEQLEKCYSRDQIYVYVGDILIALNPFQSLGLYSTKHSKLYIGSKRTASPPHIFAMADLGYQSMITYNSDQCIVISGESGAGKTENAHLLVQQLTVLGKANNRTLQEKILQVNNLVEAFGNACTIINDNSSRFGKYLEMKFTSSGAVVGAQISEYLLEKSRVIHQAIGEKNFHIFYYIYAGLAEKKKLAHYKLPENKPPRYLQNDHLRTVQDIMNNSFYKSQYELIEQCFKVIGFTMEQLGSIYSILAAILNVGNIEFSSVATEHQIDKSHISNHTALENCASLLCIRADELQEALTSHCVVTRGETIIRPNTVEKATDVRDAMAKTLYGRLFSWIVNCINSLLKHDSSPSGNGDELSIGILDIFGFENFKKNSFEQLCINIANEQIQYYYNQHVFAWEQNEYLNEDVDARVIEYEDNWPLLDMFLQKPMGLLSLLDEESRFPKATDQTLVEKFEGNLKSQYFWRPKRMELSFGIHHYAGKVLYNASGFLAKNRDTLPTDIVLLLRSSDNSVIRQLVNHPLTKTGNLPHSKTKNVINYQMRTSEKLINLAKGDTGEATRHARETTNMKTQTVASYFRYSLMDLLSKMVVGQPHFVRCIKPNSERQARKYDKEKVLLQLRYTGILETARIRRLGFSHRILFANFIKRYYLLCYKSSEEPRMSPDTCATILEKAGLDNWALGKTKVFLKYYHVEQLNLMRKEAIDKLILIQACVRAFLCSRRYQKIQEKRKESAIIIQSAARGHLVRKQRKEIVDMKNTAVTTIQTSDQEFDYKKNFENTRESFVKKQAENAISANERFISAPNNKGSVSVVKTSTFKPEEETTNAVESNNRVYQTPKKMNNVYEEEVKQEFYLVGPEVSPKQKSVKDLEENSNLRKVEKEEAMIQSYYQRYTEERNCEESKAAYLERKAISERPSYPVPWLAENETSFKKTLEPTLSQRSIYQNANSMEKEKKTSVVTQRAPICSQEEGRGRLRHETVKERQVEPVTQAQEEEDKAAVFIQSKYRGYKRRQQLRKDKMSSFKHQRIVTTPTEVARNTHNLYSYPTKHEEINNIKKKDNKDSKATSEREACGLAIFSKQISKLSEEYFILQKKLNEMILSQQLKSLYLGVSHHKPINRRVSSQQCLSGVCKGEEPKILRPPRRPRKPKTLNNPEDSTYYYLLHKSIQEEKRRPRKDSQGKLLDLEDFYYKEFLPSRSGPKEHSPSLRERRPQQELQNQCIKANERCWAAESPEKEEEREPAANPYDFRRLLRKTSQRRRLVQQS
Procedure, shortened: as §1

CSNK1A1L = CSNK1A1L (Homo sapiens, UniProt Q8N752)
Procedure, shortened: as §1

T1 sequence (P31152 whole entry): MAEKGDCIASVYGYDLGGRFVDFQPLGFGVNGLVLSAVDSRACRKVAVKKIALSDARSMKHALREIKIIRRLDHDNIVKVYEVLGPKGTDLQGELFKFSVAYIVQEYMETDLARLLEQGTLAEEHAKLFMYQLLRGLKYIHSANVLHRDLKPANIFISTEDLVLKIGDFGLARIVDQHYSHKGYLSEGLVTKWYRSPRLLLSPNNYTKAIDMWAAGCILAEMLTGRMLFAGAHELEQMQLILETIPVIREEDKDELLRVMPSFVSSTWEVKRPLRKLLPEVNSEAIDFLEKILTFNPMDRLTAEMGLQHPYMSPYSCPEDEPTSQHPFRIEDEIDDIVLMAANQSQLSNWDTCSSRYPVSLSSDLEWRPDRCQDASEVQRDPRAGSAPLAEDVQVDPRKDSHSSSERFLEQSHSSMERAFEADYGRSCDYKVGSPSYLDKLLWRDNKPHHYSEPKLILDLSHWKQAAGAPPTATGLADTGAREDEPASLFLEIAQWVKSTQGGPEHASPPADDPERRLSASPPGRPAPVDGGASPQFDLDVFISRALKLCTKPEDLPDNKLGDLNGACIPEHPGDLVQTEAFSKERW

With `C=CC(=O)Nc1cc(-n2c(=O)ccc3cnc4ccc(-n5cccn5)cc4c32)ccc1C` [CHMFL-BTK-11] the remaining binding at 1 µM (ERK4) was 96%, the remaining binding at 1 µM [1] was 78% and the remaining binding at 1 µM (NEK11) was 96%. It also gave a remaining binding at 1 µM (EGFR(G719C)) of 97%, a remaining binding at 1 µM (PCTK1) of 100% and a remaining binding at 1 µM (PHKG2) of 100%. For the same molecule, the remaining binding at 1 µM (KIT(V559D,T670I)) was 99%, the remaining binding at 1 µM (CDC2L1) was 100% and the remaining binding at 1 µM (p38-delta) was 96%. For the same molecule, the remaining binding at 1 µM (GRK4) was 94%, the remaining binding at 1 µM (PIK3C2B) was 100% and the remaining binding at 1 µM (PIK3CA(E542K)) was 91%. It also gave a remaining binding at 1 µM (PIM3) of 95%, a remaining binding at 1 µM (RET(V804M)) of 100% and a remaining binding at 1 µM (CSK) of 100%. The remaining binding at 1 µM (TAOK2) was 91%, the remaining binding at 1 µM (PIK3CA(I800L)) was 62% and the remaining binding at 1 µM (SRC) was 98%. For the same molecule, the remaining binding at 1 µM (LYN) was 94%, the remaining binding at 1 µM (STK16) was 91% and the remaining binding at 1 µM (ERK1) was 100%. The remaining binding at 1 µM (PRKCD) was 86%, the remaining binding at 1 µM (BTK) was 8.2% and the remaining binding at 1 µM (MYO3A) was 100%. The remaining binding at 1 µM (CSNK1A1L) was 100%.
